Experimental data reported in patent publication US20230167121A1, “SUBSTITUTED {1,2,4,} TRIAZOLO{1,5-A} PYRIMIDINE COMPOUNDS AND USE IN STABILIZING MICROTUBULES” (THE TRUSTEES OF THE UNIVERSITY OF PENNSYLVANIA, priority 2020, published 2023).
Several values for one entry are separate records, joined by “and”; a condition that tells them apart may be missing. Identical values can stand only once. Counter-ions that a name gives are not always drawn. Like-named read-outs stand apart in the source and are kept apart here.

Experiments:
total α-tubulin = test: cell-based assay of MT-stabilization: total α-tubulin in QBI293 cell lysates by ELISA; details: QB1293 cells; for fold induction at 10 µM / fold induction at 1 µM: QBI293, 4 h
Experimental: (§1) All test compounds were evaluated in a previously described cell-based assay of MT-stabilization (see Kovalevich, J., et al. (2016) Characterization of Brain-Penetrant Pyrimidine-Containing Molecules with Differential Microtubule-Stabilizing Activities Developed as Potential Therapeutic Agents for Alzheimer's Disease and Related Tauopathies. J Pharmacol Exp Ther 357, 432-450, incorporated herein by reference), in which compound-dependent changes in tubulin polymerization and total tubulin levels were determined after 4 h of incubation of QBI293 cells with 1 and 10 μM compound via quantification of acetylated α-tubulin and total tubulin in cell lysates by ELISA.
(§2) Novel C6 nitrile- and alkyne-substituted triazolopyrimidine examples that have improved in vitro activity relative to previously described examples, with the general structure depicted in Formula I. The activity of the novel C6-nitrile substituted compounds were tested in a previously described cellular assay of MT-stabilization (Kovalevich, J., et al. (2016)). As summarized in Table 2. below, eighteen examples were synthesized and tested. In all cases, these compounds were confirmed to be active Class I triazolopyrimidines. […] Table 2 provides fold-changes in acetylated α-tubulin and total α-tubulin levels in QB1293 cells after 4 h incubation with test compounds at either 1 or 10 μM. Data are expressed as the fold-change relative to vehicle-treated cells. *p<0.05 and **p<0.01 by one-way ANOVA.
(§3) Compounds produced according to the preceding synthetic schemes were for microtubule stabilization. Fold-changes in acetylated α-tubulin (AcTub) and α-tubulin (α-Tub) levels in QB1293 cells after 4 h incubation with test compounds at either 1 or 10 μM. Reported values for AcTub and α-Tub represent the fold-change over control (DMSO)-treated cells (*p<0.05 and **p<0.01 by one-way ANOVA); numbers in parentheses represent the fold-change of AcTub over positive control-treated cells (i.e., 100 nM of cevipabulin). Changes of +/−15% of control are deemed to be within the day-to-day assay variability and non-significant.

acetylated α-tubulin = test: cell-based assay of MT-stabilization: acetylated α-tubulin in QBI293 cell lysates by ELISA
Experimental: as §1, §2, §3

[1] = Plasma and brain compound determinations (LC-MS/MS); format: in vivo; details: CD1 mice, 2.5 mg/kg each, one hour after dosing; for concentration at 1 h / Kp at 1 h: CD1, mouse, 2.5 mg/kg
Experimental: CD1 mice (n=3) were dosed concurrently with CNDR-51990 and CNDR-51993 (representing a 1:1 mixture of two diastereoisomers, 52017 (67) and 52016 (68)) at 2.5 mg/kg each). One hour after dosing, mice were euthanized and blood collected, followed by perfusion with saline. Mouse brains were homogenized in 10 mM ammonium acetate, pH 5.7 (1:2; w/v) using a handheld sonic homogenizer. Mouse plasma was obtained from blood that was collected into a 1.5 ml tube containing 0.5M EDTA solution and which was centrifuged for 10 minutes at 4500 g at 4° C. Aliquots (50 μl) of brain homogenates or plasma were mixed with 0.2 ml of acetonitrile, centrifuged at 15,000×g, and the resulting supernatant was used for subsequent LC-MS/MS analysis. The LC-MS/MS analysis was conducted by Inotiv, Inc., utilizing methods essentially as previously described (Lou et al., J. Med. Chem. 57:6116-27, 2014).

[2] = 4 h incubation, 1 μM compound, relative to vehicle-treated cells
[3] = 4 h incubation, 10 μM compound, relative to vehicle-treated cells, read-out: α-Tub 10 μM (fold-change in total α-tubulin)
[4] = Table 4, 4 h, 1 μM, read-out: α-Tub l μM (fold-change over control (DMSO)-treated cells)
[5] = Table 4, 4 h, 10 μM, read-out: α-Tub 10 μM (fold-change over control (DMSO)-treated cells)
[6] = dosed concurrently, individual animals 1-3
[7] = 4 h incubation, 1 μM compound, relative to vehicle-treated cells, read-out: α-Tub 1 μM (fold-change in total α-tubulin)

Molecule: N#Cc1cc(F)c(-c2c(Cl)nc3ncnn3c2N2CCCCCCC2)c(F)c1 [Compound 77, 4-(7-(azocan-1-yl)-5-chloro-[1,2,4]triazolo[1,5-a]pyrimidin-6-yl)-3,5-difluorobenzonitrile]
- α-Tub 1 μM (fold-change in total α-tubulin) (total α-tubulin; [2]): 1.01 +/− 0.02 fold-change
- fold induction at 10 µM (total α-tubulin; [3]): 0.99

Molecule: C[C@H](Nc1c(-c2c(F)cc(I)cc2F)c(Cl)nc2ncnn12)C(F)(F)F [TAL-640]
- fold induction at 1 µM (total α-tubulin; [4]): 1.01
- fold induction at 10 µM (total α-tubulin; [5]): 0.93
- fold induction at 1 µM (acetylated α-tubulin; QBI293, Table 4, QB1293 cells, 4 h, 1 μM, *p<0.05, **p<0.01, read-out: AcTub 1 μM (fold-change over control (DMSO)-treated cells)): 1.9

Molecule: CNCC#Cc1cc(F)c(-c2c(Cl)nc3ncnn3c2N[C@H](C)C(C)C)c(F)c1 [TAL-637, (R)-5-chloro-6-(2,6-difluoro-4-(3-(methylamino)prop-1-yn-1-yl)phenyl)-N-(3-methylbutan-2-yl)-[1,2,4]triazolo[1,5-a]pyrimidin-7-amine hydrochloride]
- fold induction at 1 µM (total α-tubulin; [4]): 0.96
- fold induction at 10 µM (total α-tubulin; [5]): 0.96

Molecule: C#Cc1cc(F)c(-c2c(Cl)nc3ncnn3c2N[C@H](C)C(C)C)c(F)c1 [TAL-487, (R)-5-chloro-6-(4-ethynyl-2,6-difluorophenyl)-N-(3-methylbutan-2-yl)-[1,2,4]triazolo[1,5-a]pyrimidin-7-amine]
- fold induction at 1 µM (total α-tubulin; [4]): 0.98

Molecule: CC(C)[C@@H](C)Nc1c(-c2ccc(C#N)cc2F)c(Cl)nc2ncnn12 [CNDR-51993, (R)-4-(5-chloro-7-((3-methylbutan-2-yl)amino)-[1,2,4]triazolo[1,5-a]pyrimidin-6-yl)-3-fluorobenzonitrile]
- concentration at 1 h ([1]; brain, dosed concurrently, individual animals 1-3, read-out: Brain Concentration): 209 ng/g
- concentration at 1 h ([1]; brain, dosed concurrently, mean, n=3, read-out: Brain Concentration, Mean): 225 ng/g
- Kp at 1 h ([1]; brain, individual animals 1-3, read-out: Brain/Plasma): 0.86
- Kp at 1 h ([1]; brain, mean, n=3, read-out: Brain/Plasma, Mean): 1.09
- concentration at 1 h ([1]; plasma, dosed concurrently, individual animals 1-3, read-out: Plasma Concentration): 242 ng/mL
- concentration at 1 h ([1]; plasma, dosed concurrently, mean, n=3, read-out: Plasma Concentration, Mean): 206 ng/mL
- Brain Concentration [1, 6]: 211 ng/g and 254 ng/g
- Plasma Concentration [1, 6]: 186 ng/mL and 190 ng/mL
- Brain/Plasma ([1]; individual animals 1-3): 1.13 and 1.34

Molecule: 4-(5-chloro-7-(piperidin-1-yl)-[1,2,4]triazolo[1,5-a]pyrimidin-6-yl)-3,5-difluorobenzonitrile [Compound 74]
- α-Tub 1 μM (fold-change in total α-tubulin) (total α-tubulin; [2]): 0.98 +/− 0.02 fold-change
- α-Tub 10 μM (fold-change in total α-tubulin) (total α-tubulin; 4 h incubation, 10 μM compound, relative to vehicle-treated cells): 0.95 +/− 0.03 fold-change
- Class (acetylated α-tubulin; Table 2, triazolopyrimidine MT-activity class): 1

Molecule: C[C@@H](Nc1c(-c2c(F)cc(C#CCCN(C)C)cc2F)c(Cl)nc2ncnn12)C(C)(C)C [TAL-664, (R)-5-chloro-6-(4-(4-(dimethylamino)but-1-yn-1-yl)-2,6-difluorophenyl)-N-(3,3-dimethylbutan-2-yl)-[1,2,4]triazolo[1,5-a]pyrimidin-7-amine]
- fold induction at 1 µM (total α-tubulin; [4]): 0.88
- fold induction at 10 µM (total α-tubulin; [5]): 0.96

Molecule: CC(C)[C@@H](C)Nc1c(-c2c(F)cc(C#N)cc2F)c(Cl)nc2ncnn12 [Compound 66, (R)-4-(5-chloro-7-((3-methylbutan-2-yl)amino)-[1,2,4]triazolo[1,5-a]pyrimidin-6-yl)-3,5-difluorobenzonitrile]
- fold induction at 1 µM (total α-tubulin; [7]): 0.93
- fold induction at 10 µM (total α-tubulin; [3]): 0.94

Molecule: C[C@H](Nc1c(-c2c(F)cc(C#CCCCO)cc2F)c(Cl)nc2ncnn12)C(F)(F)F [TAL-642, (S)-5-(4-(5-chloro-7-((1,1,1-trifluoropropan-2-yl)amino)-[1,2,4]triazolo[1,5-a]pyrimidin-6-yl)-3,5-difluorophenyl)pent-4-yn-1-ol]
- fold induction at 1 µM (total α-tubulin; [4]): 0.93
- fold induction at 10 µM (total α-tubulin; [5]): 0.87

Molecule: CC(C)[C@@H](Nc1c(-c2ccc(C#N)cc2F)c(Cl)nc2ncnn12)C(F)(F)F [Compound 63, (R)-4-(5-chloro-7-((1,1,1-trifluoro-3-methylbutan-2-yl)amino)-[1,2,4]triazolo[1,5-a]pyrimidin-6-yl)-3-fluorobenzonitrile]
- fold induction at 1 µM (total α-tubulin; [7]): 0.99
- fold induction at 10 µM (total α-tubulin; [3]): 0.98

Molecule: CNCC#Cc1cc(F)c(-c2c(Cl)nc3ncnn3c2N[C@H](C)C(C)(C)C)c(F)c1 [TAL-638, (R)-5-chloro-6-(2,6-difluoro-4-(3-(methylamino)prop-1-yn-1-yl)phenyl)-N-(3,3-dimethylbutan-2-yl)-[1,2,4]triazolo[1,5-a]pyrimidin-7-amine hydrochloride]
- fold induction at 1 µM (total α-tubulin; [4]): 0.93
- fold induction at 10 µM (total α-tubulin; [5]): 1

Molecule: C[C@H](Nc1c(-c2ccc(C#N)cc2F)c(Cl)nc2ncnn12)C(F)(F)F [Compound 61, (S)-4-(5-Chloro-7-((1,1,1-trifluoropropan-2-yl)amino)-[1,2,4]triazolo[1,5-a]pyrimidin-6-yl)-3-fluorobenzonitrile]
- fold induction at 1 µM (total α-tubulin; [7]): 1
- fold induction at 10 µM (total α-tubulin; [3]): 1

Molecule: N#Cc1ccc(-c2c(Cl)nc3ncnn3c2N2CCCCCC2)c(F)c1 [Compound 76, 4-(7-(Azepan-1-yl)-5-chloro-[1,2,4]triazolo[1,5-a]pyrimidin-6-yl)-3-fluorobenzonitrile]
- α-Tub 1 μM (fold-change in total α-tubulin) (total α-tubulin; [2]): 1.04 +/− 0.05 fold-change
- fold induction at 10 µM (total α-tubulin; [3]): 0.99

Molecule: CC(C)[C@@H](C)Nc1c(-c2c(F)cc(C#CCN(C)C)cc2F)c(Cl)nc2ncnn12 [TAL-546, (R)-5-chloro-6-(4-(3-(dimethylamino)prop-1-yn-1-yl)-2,6-difluorophenyl)-N-(3-methylbutan-2-yl)-[1,2,4]triazolo[1,5-a]pyrimidin-7-amine]
- fold induction at 1 µM (total α-tubulin; [4]): 0.98

Molecule: CC(C)[C@@H](C)Nc1c(-c2ccc(C#N)cc2F)c(Cl)nc2ncnn12 [Compound 68, (R)-4-(5-chloro-7-((3-methylbutan-2-yl)amino)-[1,2,4]triazolo[1,5-a]pyrimidin-6-yl)-3-fluorobenzonitrile]
- α-Tub 1 μM (fold-change in total α-tubulin) (total α-tubulin; 4 h incubation, 1 μM compound, relative to vehicle-treated cells, listed as 52016 (68)): 0.95 +/− 0.02 fold-change
- α-Tub 10 μM (fold-change in total α-tubulin) (total α-tubulin; 4 h incubation, 10 μM compound, relative to vehicle-treated cells, listed as 52016 (68)): 0.92 +/− 0.01 fold-change

Molecule: C[C@H](Nc1c(-c2c(F)cc(C#CCCO)cc2F)c(Cl)nc2ncnn12)C(F)(F)F [TAL-641, (S)-4-(4-(5-chloro-7-((1,1,1-trifluoropropan-2-yl)amino)-[1,2,4]triazolo[1,5-a]pyrimidin-6-yl)-3,5-difluorophenyl)but-3-yn-1-ol]
- fold induction at 1 µM (total α-tubulin; [4]): 0.98

Molecule: C[C@@H](Nc1c(-c2c(F)cc(C#CCCCO)cc2F)c(Cl)nc2ncnn12)C(C)(C)C [TAL-601, (R)-5-(4-(5-chloro-7-((3,3-dimethylbutan-2-yl)amino)-[1,2,4]triazolo[1,5-a]pyrimidin-6-yl)-3,5-difluorophenyl)pent-4-yn-1-ol]
- fold induction at 1 µM (total α-tubulin; [4]): 1.18

Molecule: N#Cc1cc(F)c(-c2c(Cl)nc3ncnn3c2N2CCCCCC2)c(F)c1 [Compound 75, 4-(7-(Azepan-1-yl)-5-chloro-[1,2,4]triazolo[1,5-a]pyrimidin-6-yl)-3,5-difluorobenzonitrile]
- fold induction at 1 µM (total α-tubulin; [7]): 0.98 ± 0.03
- fold induction at 10 µM (total α-tubulin; [3]): 0.99

Molecule: C[C@H](Nc1c(-c2c(F)cc(C#N)cc2F)c(Cl)nc2ncnn12)C(F)(F)F [Compound 19, (S)-4-(5-Chloro-7-((1,1,1-trifluoropropan-2-yl)amino)-[1,2,4]triazolo[1,5-a]pyrimidin-6-yl)-3,5-difluorobenzonitrile]
- fold induction at 1 µM (total α-tubulin; [7]): 0.94 ± 0.02
- fold induction at 10 µM (total α-tubulin; [3]): 0.95 ± 0.05
